In patent US9497970B2, “Pesticide compounds” (priority 2013, dated 2016):

What was measured:
Format in all cases: in vivo
[1] = tested on: Boll Weevil (Anthonomus grandis); assay: B.3 Boll Weevil (Anthonomus grandis), microtiter plate insect diet; conditions: 120 h, 800 ppm, sprayed onto insect diet, 5 days, in comparison with untreated controls, read-out: mortality (egg and larval)
Summary of the method: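 Compounds in 25% DMSO/water sprayed at several concentrations onto insect diet in microtiter wells holding 5–10 A. grandis eggs, two replicates. Plates kept 5 days at about 25±1 °C and 75±5% RH. Egg and larval mortality scored visually.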

[2] = tested on: Green Peach Aphid (Myzus persicae); assay: B.9 Green Peach Aphid (Myzus persicae), sprayed bell pepper plants; conditions: 120 h, infested bell pepper plants sprayed, after 5 days, in comparison with untreated controls
Method: B.9 Green Peach Aphid (Myzus persicae)
The active compounds were formulated by a Tecan liquid handler in 100% cyclohexa none as a 10,000 ppm solution supplied in tubes. The 10,000 ppm solution was serially diluted in 100% cyclohexanone to make interim solutions. These served as stock solutions for which final dilutions were made by the Tecan in 50% acetone:50% water (v/v) into 5 or 10 ml glass vials. A nonionic surfactant (Kinetic®) was included in the solution at a volume of 0.01% (v/v). The vials were then inserted into an automated electrostatic sprayer equipped with an atomizing nozzle for application to plants/insects.
Bell pepper plants at the first true-leaf stage were infested prior to treatment by placing heavily infested leaves from the main colony on top of the treatment plants. Aphids were allowed to transfer overnight to accomplish an infestation of 30-50 aphids per plant and the host leaves were removed. The infested plants were then sprayed by an automated electrostatic plant sprayer equipped with an atomizing spray nozzle. The plants were dried in the sprayer fume hood, removed, and then maintained in a growth room under fluorescent lighting in a 24-hr photoperiod at about 25° C. and about 20-40% relative humidity. Aphid mortality on the treated plants, relative to mortality on untreated control plants, was determined after 5 days.

[3] = tested on: Diamond Back Moth (Plutella xylostella); assay: B.1 Diamond Back Moth (Plutella xylostella), cabbage leaf dip; conditions: foliar, 500 ppm, 3rd instar larvae on dipped cabbage leaves, 72 hours after treatment, in comparison with untreated controls, read-out: mortality
Summary of the method: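 Cabbage leaves dipped in compound in 1:1 water:acetone with 0.01% Kinetic HV surfactant, air-dried, then infested with ten 3rd-instar larvae on moist filter paper. Mortality scored at 72 h after treatment; feeding damage rated on a 0-100% scale.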

[4] = tested on: Orchid thrips (dichromothrips corbetti); assay: B.12 Orchid thrips (dichromothrips corbetti), floral-immersion technique; conditions: adult thrips on dipped orchid petals, 72 hours after treatment, in comparison with untreated controls
Summary of the method: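 Whole orchid flower petals were dipped in compound in 1:1 acetone:water with 0.01% v/v Kinetic HV, dried, and enclosed with about 20 adult thrips. They were held under continuous light at about 28° C. Live thrips were counted and percent mortality recorded at 72 hours.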

[5] = tested on: Mediterranean Fruitfly (Ceratitis capitata); assay: B.6 Mediterranean Fruitfly (Ceratitis capitata), microtiter plate insect diet; conditions: 120 h, 800 ppm, sprayed onto insect diet, 5 days, in comparison with untreated controls, read-out: mortality (egg and larval)
Summary of the method: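 Insect diet with 50-80 C. capitata eggs sprayed with compounds formulated in 75% water/25% DMSO, at different concentrations, two replications. Incubation at about 28±1° C and 80±5% relative humidity for 5 days, then egg and larval mortality assessed visually.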

[6] = tested on: Yellow Fever Mosquito (Aedes aegypti); assay: whole plant or invertebrate; conditions: 48 h, freshly hatched larvae in tap water, 2 days, in comparison with untreated controls, read-out: mortality (larval)
Method: B.11 Yellow Fever Mosquito (Aedes aegypti)
For evaluating control of yellow fever mosquito (Aedes aegypti) the test unit consisted of 96-well-microtiter plates containing 200 μl of tap water per well and 5-15 freshly hatched A. aegypti larvae.
The active compounds were formulated using a solution containing 75% (v/v) water and 25% (v/v) DMSO. Different concentrations of formulated compounds or mixtures were sprayed onto the insect diet at 2.5 μl, using a custom built micro atomizer, at two replications.

[7] = tested on: Tobacco Budworm (Heliothis virescens); assay: B.7 Tobacco Budworm (Heliothis virescens) I, microtiter plate insect diet; conditions: 120 h, 800 ppm, sprayed onto insect diet, 5 days, in comparison with untreated controls, read-out: mortality (egg and larval)
Summary of the method: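 96-well plates with insect diet and 15-25 H. virescens eggs; compounds in 75% water/25% DMSO sprayed onto diet at several concentrations, two replicates. Plates held at about 28±1° C. and 80±5% relative humidity for 5 days, then egg and larval mortality scored visually.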

[8] = tested on: Southern Armyworm (Spodoptera eridania), 2nd Instar Larvae; assay: B.10 Southern Armyworm (Spodoptera eridania), 2nd Instar Larvae, sprayed lima bean plants; conditions: 96 h, 300 ppm, larvae on sprayed lima bean plants, 4 days after treatment, in comparison with untreated controls, read-out: mortality
Method: B.10 Southern Armyworm (Spodoptera eridania), 2nd Instar Larvae
The active compounds were formulated by a Tecan liquid handler in 100% cyclohexanone as a 10,000 ppm solution supplied in tubes. The 10,000 ppm solution was serially diluted in 100% cyclohexanone to make interim solutions. These served as stock solutions for which final dilutions were made by the Tecan in 50% acetone:50% water (v/v) into 5 or 10 ml glass vials. A nonionic surfactant (Kinetic®) was included in the solution at a volume of 0.01% (v/v). The vials were then inserted into an automated electrostatic sprayer equipped with an atomizing nozzle for application to plants/insects.
Lima bean plants (variety Sieva) were grown 2 plants to a pot and selected for treatment at the 1st true leaf stage. Test solutions were sprayed onto the foliage by an automated electrostatic plant sprayer equipped with an atomizing spray nozzle. The plants were dried in the sprayer fume hood and then removed from the sprayer. Each pot was placed into perforated plastic bags with a zip closure. About 10 to 11 armyworm larvae were placed into the bag and the bags zipped closed. Test plants were maintained in a growth room at about 25° C. and about 20-40% relative humidity for 4 days, avoiding direct exposure to fluorescent light (24 hour photoperiod) to prevent trapping of heat inside the bags. Mortality and reduced feeding were assessed 4 days after treatment, compared to untreated control plants.

Cc1cc(Br)cc(C)c1NC(=S)N/N=C/c1ccc2c(ccc3c2ncn3-c2ccc(OC(F)(F)F)cc2)c1 [C-4, 1-(4-bromo-2,6-dimethyl-phenyl)-3-[(E)-[3-[4-(trifluoromethoxy)phenyl]benzo[e]benzimidazol-7-yl]methyleneamino]thiourea]
≥ 75%: mortality at 800 ppm [1] | mortality at 800 ppm [2] | mortality at 500 ppm [3] | mortality at 500 ppm [4] | mortality at 800 ppm [5] | mortality at 800 ppm [6] | mortality at 800 ppm [7]

COc1ccc(C)cc1NC(=S)N/N=C/c1ccc2c(ccc3c2ncn3-c2ccc(OC(F)(F)F)cc2)c1 [C-25, 1-(2-methoxy-5-methyl-phenyl)-3-[(E)-[3-[4-(trifluoromethoxy)phenyl]benzo [e]benzimidazol-7-yl]methyleneamino] thiourea]
≥ 75%: mortality at 800 ppm [1] | mortality at 800 ppm [2] | mortality at 800 ppm [5] | mortality at 300 ppm [8]

C/C(=N\NC(=S)Nc1c(C)cccc1C)c1ccc2c(ccc3c2ncn3-c2ccc(OC(F)(F)F)cc2)c1 [C-58, 1-(2,6-dimethylphenyl)-3-[(E)-1-[3-[4-(trifluoromethoxy)phenyl]benzo[e]benzimidazol-7-yl]ethylideneamino]thiourea]
≥ 75%: mortality at 800 ppm [1] | mortality at 800 ppm [2] | mortality at 500 ppm [3] | mortality at 500 ppm [4] | mortality at 800 ppm [5] | mortality at 800 ppm [6] | mortality at 300 ppm [8] | mortality at 800 ppm [7]

Cc1cccc(Cl)c1NC(=S)N/N=C/c1ccc2c(ccc3c2ncn3-c2ccc(OC(F)(F)F)cc2)c1 [C-79, 1-(2-chloro-6-methyl-phenyl)-3-[(E)-[3-[4-(trifluoromethoxy)phenyl]benzo[e]benzimidazol-7-yl]methyleneamino] thiourea]
≥ 75%: mortality at 800 ppm [1] | mortality at 800 ppm [2] | mortality at 500 ppm [3] | mortality at 500 ppm [4] | mortality at 800 ppm [5] | mortality at 800 ppm [6] | mortality at 300 ppm [8] | mortality at 800 ppm [7]

CCc1cccc(C)c1NC(=S)N/N=C/c1ccc2c(ccc3c(-c4ccc(OC(F)(F)F)cc4)n(C)nc32)c1 [C-92, 1-(2-ethyl-6-methyl-phenyl)-3-[(E)-[2-methyl-3-[4-(trifluoromethoxy)phenyl]benzo[g]indazol-7-yl]methyleneamino] thiourea]
≥ 75%: mortality at 800 ppm [1] | mortality at 800 ppm [2] | mortality at 500 ppm [3] | mortality at 500 ppm [4] | mortality at 800 ppm [5] | mortality at 800 ppm [6] | mortality at 800 ppm [7]

Cc1cccc(C)c1NC(=S)N/N=C/c1ccc2c(ccc3c2ncn3-c2ccc(C(F)(F)C(F)(F)F)cc2)c1 [C-110, 1-(2,6-dimethylphenyl)-3-[(E)-[3-[4-(1,1,2,2,2-pentafluoroethyl)phenyl]benzo[e]benzimidazol-7-yl]methyleneamino]thiourea]
≥ 75%: mortality at 800 ppm [1] | mortality at 800 ppm [2] | mortality at 800 ppm [5] | mortality at 800 ppm [6] | mortality at 800 ppm [7]

Cc1cccc(C)c1NC(=S)N/N=C/c1ccc2c(ccc3c2ncn3-c2ccc(C(F)(F)F)cc2F)c1 [C-113, 1-(2,6-dimethylphenyl)-3-[[3-[2-fluoro-4-(trifluoromethyl)phenyl]-3aH-benzo[e]benzimidazol-7-ylidene]methylimino]thiourea]
≥ 75%: mortality at 800 ppm [1] | mortality at 800 ppm [2] | mortality at 800 ppm [5] | mortality at 800 ppm [6] | mortality at 800 ppm [7]
